# Laboratory results: patent publication US20220117266A1, “NICKEL CHELATION THERAPY” (priority 2019, published 2022)
# Columns and labels:
# [1] = tested on: MDR S. Typhimurium (ATCC 700408); assay: DMG growth inhibition in liquid culture (CFU/mL); assay type: cell-based, Salmonella enterica serovar Typhimurium
# Description: (§1) Growth conditions. All strains were routinely grown on LB agar plates or in LB broth. For DMG-growth inhibition study, S. Typhimurium strains ATCC 14028 and ATCC 700408 were grown in M9 minimal medium (M9 minimal salts, 0.4% glucose, 2 mM MgSO4, 0.1 mM CaCl2), and 1 μg/mL thiamine, pH 7.2). K. pneumoniae was grown in “W-U” medium, modified from Bender et al. 1977 129:1001-1009, containing 60 mM K2HPO4, 33 mM KH2PO4, 0.4 mM MgSO4, 0.4% Glucose, and 5 mM urea (instead of KNO3), pH 7.4. Briefly, overnight cultures of S. Typhimurium and K. pneumoniae were harvested, spun at 14,000 rpm for five minutes, washed once with either M9 (S. Typhimurium) or W-U (K. pneumoniae) and resuspended in either M9 (S. Typhimurium) or W-U (K. pneumoniae). […] Cells were incubated for 24 hours at 37° C. with shaking at 250 rpm, then serially diluted in PBS and 5 μL of each dilution was spotted in triplicate on LB plate. Colony forming units (CFU) were counted after 16 hours at 37° C. Each growth experiment was done at least three times.
# [2] = tested on: S. Typhimurium (ATCC 14028); assay: DMG growth inhibition in liquid culture (CFU/mL); assay type: cell-based, Salmonella enterica serovar Typhimurium
# Description: as §1
# [3] = tested on: urease activity in K. pneumoniae BAA-2472; assay: Urease assay on cell-free extracts of cells grown with DMG; assay type: biochemical; details: overnight
# Description: Thus, similar to hydrogenase inhibition, it appears DMG-mediated Ni chelation can be used to efficiently block urease activity in Klebsiella.
# Urease assays. […] Cells were pelleted at 6,000 rpm for 30 minutes and washed three times with PBS (pH 7.4). Cells were standardized to an optical density (OD600) of 4.5, added to sterile glass beads (0.1 mm diameter, Biospec Products, Bartlesville, Okla.) at a 100% w/v ratio, and frozen at −80° C. The bead and cell mixture was thawed at room temperature and vortexed at 3,200 rpm for six minutes with one minute intervals on ice. The mixture was pelleted at 14,000 rpm for two minutes and the cell-free supernatant was assayed for urease activity using the phenol-hypochlorite method (Weatherburn et al. 1967. Analytical Chemistry 39:971-974). Protein concentration was determined using the BCA protein kit (Thermo Fisher Pierce, Rockford, Ill., USA). Urease activity is expressed as μmoles of NH3 produced per minute per mg of total protein.
# [4] = tested on: MDR K. pneumoniae; assay: Galleria mellonella infection model; assay type: in vivo; details: 5 μl of 250 mM DMG (approx. 0.38 mg) injected five to ten minutes prior to bacterial challenge
# Description: (§2) Attempts to establish a reliable K. pneumoniae infection model in mice failed, so an alternate animal model was chosen.
# (§3) Galleria mellonella (wax moth) experiments. Wax moth larvae were obtained from local pet stores, from two different suppliers: the bug company (Ham Lake, Minn.; www.ebugco.com) and Timberline (Marion, Ill.; www.timberlinefresh.com). Larvae were stored in wood shavings at 4° C. in the dark and used within two weeks after purchase. Only larvae weighing 300±50 mg were selected for the experiments. Groups of ten larvae were used for each experiment. The site of injection (last right or left proleg) was disinfected with ethanol 70% (vol/vol) before and after each injection. A 10 μL-Hamilton syringe fitted with a […] needle (Becton Dickinson, Franklin Lakes, N.J.) was used to inject 5 μL. After injection, larvae were kept in 9.2-cm Petri dishes at 37° C. in the dark with no food. Larvae were monitored daily for […] and mortality (as defined by change of pigmentation and absence of response following physical stimulation) was recorded. […] Bacterial suspensions were prepared as follows: cells were grown overnight in 5 mL of Mueller Hinton broth, harvested, washed once, and resuspended in sterile 0.8% NaCl to a final OD600 of 0.1 (approximately 10^8 CFU/mL, as determined by CFU counts on serially diluted samples).
# [5] = tested on: MDR S. Typhimurium; assay: Galleria mellonella infection model; assay type: in vivo; details: 5 μl of 250 mM DMG (approx. 0.38 mg) injected five to ten minutes prior to bacterial challenge
# Description: as §2, §3
# [6] = tested on: S. Typhimurium ATCC 700408; assay: Biofilm inhibition assay (crystal violet); assay type: cell-based, Salmonella enterica serovar Typhimurium; details: 18 hours with DMG
# Description: Biofilm inhibition assay. S. Typhimurium and K. pneumoniae cultures were adjusted to an optical density (OD600) of 0.1 in fresh LB broth. H. pylori culture was adjusted to an OD600 of 0.15 in brain heart infusion (BHI) supplemented with 0.4% β-cyclodextran. […] Plates containing S. Typhimurium and K. pneumoniae were incubated at 37° C. aerobically without shaking for 18 hours. Plates containing H. pylori were incubated at 37° C. microaerobically without shaking for 48 hours. After incubation with (Na2DMG) a crystal violet biofilm assay was performed as previously described with modifications (Kwasny et al. 2010. Current Protocols in Pharmacology 50:13A. 8.1-13A. 8.23). Briefly, supernatant was removed from the wells. Next, adherent cells were gently washed with phosphate-buffered saline (PBS) and allowed to air dry for 15 minutes. Cells were then heat fixed for one hour at 60° C. before staining with 0.5% crystal violet for 5 minutes. After the crystal violet was thoroughly washed from the wells with distilled deionized water, cells were air dried for 15 minutes. Acetic acid (33%) was then added to the wells to solubilize the crystal violet. The crystal violet-acetic acid solution was transferred to a clean 96 well plate and the OD600 was measured.
# [7] = tested on: Helicobacter pylori 43504; assay: Antibiofilm assay on established biofilm; assay type: cell-based; details: DMG added for additional 24 hours
# Description: Antibiofilm assay. H. pylori culture at OD600=0.15 was added to a non-tissue culture treated polystyrene 96 well plate (Falcon) and incubated at 37° C. micro-aerobically without shaking for 48 hours. After the initial incubation, the supernatant was removed from the wells and BHI+0.4% β-cyclodextran was added back to the wells with or without Na2DMG at various concentrations. The plate was then incubated an additional 24 hours. Then, the crystal violet biofilm assay was performed as above.
# [8] = tested on: C. concisus (strain 13826, ATCC BAA-1457); assay: Growth inhibition, solid plates (CFU); assay type: cell-based, Campylobacter concisus; details: BA plates, 24 hours
# [9] = tested on: C. jejuni (strain 81-176, ATCC BAA-2151); assay: Growth inhibition, solid plates (CFU); assay type: cell-based, Campylobacter jejuni
structure (smiles),measurement,setting,value
"CC(=NO)C(C)=NO [DMG, dimethylglyoxime]",effect on bacterial growth,"[1]; DMG at 2.5 mM, 5 mM, or 7.5 mM",no measurable effect
same,inhibition at 10000 µM,"[1]; Salmonella enterica, 24 h",> 100%
same,effect on bacterial growth,"[2]; DMG at 2.5 mM, 5 mM, or 7.5 mM",no measurable effect
same,inhibition at 10000 µM,"[2]; Salmonella enterica, 24 h",> 100%
same,Urease activity,[3]; DMG 1 mM in LB broth,0.05 ± 0.01 μmoles of NH3 produced per minute per mg of total protein
same,Urease activity,[3]; DMG 2 mM in LB broth,0.03 ± 0.01 μmoles of NH3 produced per minute per mg of total protein
same,survival rate of larvae,[4],40%
same,survival rate of larvae,[5],60%
same,biofilm formation,[6],able to inhibit biofilm formation
same,effect on established (48 hours of growth) biofilm,[7],able to counteract
same,"effect on growth (CFUs, colony size)",[8]; DMG 2 mM,bacteriostatic
same,effect on growth (CFUs),"[8]; DMG 4 mM, no CFU detected (detection limit: 200 CFUs)",bactericidal
same,effect on growth (CFUs),"[9]; BHI plates, 5 mM DMG + CuSO4 1 μM to 500 μM, no detectable growth (detection limit: 200 CFUs)",bactericidal
same,"effect on growth (CFUs, colony size)","[9]; BHI plates, 5 mM DMG, 24 hours",bacteriostatic
same,effect on growth,[9]; DMG (2 mM)/Cu (0.5 mM) combination,bactericidal
